Reference: publication PMC10887108, “Novel Brain-Penetrant, Small-Molecule Tubulin Destabilizers for the Treatment of Glioblastoma” (Biomedicines, 2024)
Converted amounts (≈) assume the structure as drawn. “And” between values parts separate entries of the source, which are not always exact repeats. Equal values may be shown once.

Tests used:
[1] = Plasma pharmacokinetics after oral dosing; assay type: in vivo, CD-1 mice; conditions: mouse, 100 mg/kg oral, CD-1 male mice
Procedure: Pharmacokinetic studies were carried out by DMPK at WuXi AppTec, Inc. (Cranbury, NJ, USA). The pharmacokinetics of RGN3067 were evaluated in three male CD-1 mice. RGN3067 formulated as a 10 mg/mL solution (20% DMSO, 80% PEG400: PVP 95:5) was administered by oral gavage at a dose of 100 mg/kg. Plasma samples were drawn at 0.5, 1, 2, 4, 6, 10 and 24 h. Samples were analyzed by LC-MS/MS. A calibration curve was established using Waters ACQUITY UPLC BEH C18 column and formic acid in water and formic acid in acetonitrile as mobile phase. Tolbutamide and labetalol were used as internal standards for LC-MS/MS analysis. Compound was detected using electrospray ionization (ESI) positive detection. Pharmacokinetic parameters were calculated using the PO-noncompartmental linear model in Phoenix WinNonlin software v8.3 (Certara, Princeton, NJ, USA).

[2] = Maximum tolerated dose study; assay type: in vivo; conditions: 25, 50, 100 or 200 mg/kg oral twice daily for 5 days + 5 days observation
Procedure: ; 6 mice per group, including vehicle control). One mouse from each group was euthanized for PK analysis at 6 h post-initial dose. The weight and physical states of the animals were monitored during the 5 days of treatment and for 5 days following drug administration. […]

[3] = Plasma protein binding (dialysis); assay type: in vitro ADME; conditions: range over mouse, rat, and human plasma
Procedure: Compounds (5 µM/0.2% DMSO) were tested in dialysis chambers. Blank dialysis buffer was added to the receiver side (100 μL), and plasma (100 μL) with test and reference compounds was added to the donor side of the chamber and incubated at 37 °C on an orbital shaker. Plasma was precipitated at 0 and 5 h. Aliquots from donor and receiver sides of the dialysis apparatus (25 μL) were added to sample preparation plates and mixed with aliquots of the opposite matrix (25 μL, blank buffer to plasma and vice versa). Samples were quenched with stop solution (400 μL) containing internal standard, vortexed at 600 rpm for 10 min, and centrifuged at 4000 rpm for 10 min. Supernatants were analyzed by LC-MS. Quinidine and warfarin were used as positive controls.

U87 glioblastoma cells = test: Cell cycle analysis (propidium iodide flow cytometry); assay type: cell-based, human; conditions: U87, 5 µM, 48 h
Procedure: […] Cells were washed in ice-cold PBS, resuspended in 1 mL of ice-cold 70% ethanol, and fixed overnight at −20 °C. Cells were centrifuged and resuspended in PBS containing RNAse A at a final concentration of 0.5 mg/mL (MilliporeSigma 10109142001; Burlington, MA, USA) and propidium iodide at a final concentration of 0.04 mg/mL (Sigma-Aldrich P4170, St. Louis, MO, USA) for 1 h at 37 °C. Nuclear staining was analyzed using a BD FACSCanto II flow cytometer (BD Biosciences; Franklin Lakes, NJ, USA) to determine cell cycle distribution. Cell cycle analysis was performed using the BD FACSDiva software v8.0.

porcine tubulin = molecular target: T1, porcine tubulin (Sus scrofa, UniProt P02554); test: Tubulin polymerization assay (fluorescent reporter); assay type: biochemical; conditions: compound 5 μM, porcine tubulin 20 μM, relative to DMSO
T1 construct: purchased Cytoskeleton, Inc. BK011P
Procedure: Tubulin polymerization was evaluated by monitoring the incorporation of a fluorescent reporter into MTs during polymerization. The tubulin polymerization assay kit (Cytoskeleton, Inc. BK011P; Denver, CO, USA) was used according to the manufacturer’s instructions. Briefly, the tubulin reaction mix was kept on ice until immediately prior to use.
(A,B) Representative tubulin polymerization plots and data quantification. […] (C) Immunofluorescence staining of β-tubulin in U87 glioblastoma cells. […] Images were captured using an Operetta confocal microscope at 40× magnification. Scale bar, 10 μm. […] Data was collected with a BD FACS Canto II Flow Cytometer and analyzed using the BD FACSDiva software. (E) The percentage of cells in G1, S, and G2/M phases from the histograms in (D). Data are plotted as mean ± SD from at least three independent experiments. Analysis between groups in (B) was performed using a one-way ANOVA with Tukey’s multiple comparisons test.

[4] = Brain pharmacokinetics after oral dosing; assay type: in vivo; conditions: 100 mg/kg oral, CD-1 mice, 1, 4 and 8 h
Procedure: Brain pharmacokinetic studies were carried out by DMPK at WuXi AppTec, Inc. (Cranbury, NJ, USA). The brain penetrance of RGN3067 was evaluated in three male CD-1 mice. RGN3067 was formulated as a 10 mg/mL solution (20% DMSO, 80% PEG400: PVP 95:5) and administered by oral gavage at a dose of 100 mg/kg. Plasma and brain samples were collected at 1, 4, and 8 h. Samples were analyzed by LC-MS/MS. A calibration curve was established using Waters ACQUITY UPLC BEH C18 column and formic acid in water and formic acid in acetonitrile as mobile phase. Tolbutamide and labetalol were used as internal standards for LC-MS/MS analysis. Compound was detected using electrospray ionization (ESI) positive detection. Pharmacokinetic parameters were calculated using the PO-noncompartmental linear model in Phoenix WinNonlin software v8.3 (Certara, Princeton, NJ, USA).

[5] = system: U87 cells (microtubule network); test: Immunofluorescent staining of cellular β-tubulin; assay type: cell-based, human; conditions: U87, compounds at their IC50 concentrations, 24 h
Procedure: U87 cells (4000/well) were plated in black 96-well plates (Perkin Elmer 6055302; Waltham, MA, USA) and grown overnight. Cells were treated with compounds for 24 h, fixed with 4% paraformaldehyde for 20 min, and permeabilized with FoxP3 permeabilization buffer (eBioscience/Thermo Fisher Scientific 00-5523-00; Waltham, MA, USA) for 10 min at RT. Cells were incubated with an anti-TUBB3 (Tuj1) antibody (1:1000; […] Technologies 60052; Vancouver, BC, Canada) labeled with Hoechst 33342 dye (1:2000; Thermo Fisher Scientific H3570; Waltham, MA, USA). Images (40×) were taken with an automated high-content imaging microscope (Operetta, Perkin Elmer; Waltham, MA, USA).

[6] = Kinetic solubility in phosphate buffer; assay type: physicochemical; conditions: 100 mM phosphate buffer, 1% DMSO
Procedure: Kinetic solubility was determined in phosphate buffer. The compound (4 µL, 10 mM DMSO) was added to the buffer (396 μL 100 mM phosphate buffer, final 1% DMSO) and shaken at 1000 rpm at RT for 1 h. Samples were filtered (Millipore MSSLBPC10; Burlington, MA, USA), the primary filtrate was discarded, and the subsequent filtrate was collected. The supernatant solution was diluted 10× with DMSO. Test samples (10 µL) and working standard curve samples were added to the stop solution (100 μL, containing internal standard) and water/0.1% FA (100 μL). Samples were analyzed by LC-MS/MS. Albendazole, propranolol, and 4,5-diphenylimidazole were used as positive controls.

T1 sequence (P02554 whole entry): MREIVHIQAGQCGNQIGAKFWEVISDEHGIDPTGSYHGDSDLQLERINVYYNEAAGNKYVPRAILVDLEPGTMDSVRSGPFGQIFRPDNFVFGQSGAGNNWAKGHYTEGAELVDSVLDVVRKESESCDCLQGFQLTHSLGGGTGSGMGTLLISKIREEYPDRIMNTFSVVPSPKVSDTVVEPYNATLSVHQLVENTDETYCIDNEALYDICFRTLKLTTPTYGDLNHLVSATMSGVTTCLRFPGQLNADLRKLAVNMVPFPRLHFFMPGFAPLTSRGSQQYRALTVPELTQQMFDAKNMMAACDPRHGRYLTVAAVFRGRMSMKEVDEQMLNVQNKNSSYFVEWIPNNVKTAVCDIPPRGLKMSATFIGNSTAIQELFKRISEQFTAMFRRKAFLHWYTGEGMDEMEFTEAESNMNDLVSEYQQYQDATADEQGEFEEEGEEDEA
T1 sequence (P02550 whole entry partner): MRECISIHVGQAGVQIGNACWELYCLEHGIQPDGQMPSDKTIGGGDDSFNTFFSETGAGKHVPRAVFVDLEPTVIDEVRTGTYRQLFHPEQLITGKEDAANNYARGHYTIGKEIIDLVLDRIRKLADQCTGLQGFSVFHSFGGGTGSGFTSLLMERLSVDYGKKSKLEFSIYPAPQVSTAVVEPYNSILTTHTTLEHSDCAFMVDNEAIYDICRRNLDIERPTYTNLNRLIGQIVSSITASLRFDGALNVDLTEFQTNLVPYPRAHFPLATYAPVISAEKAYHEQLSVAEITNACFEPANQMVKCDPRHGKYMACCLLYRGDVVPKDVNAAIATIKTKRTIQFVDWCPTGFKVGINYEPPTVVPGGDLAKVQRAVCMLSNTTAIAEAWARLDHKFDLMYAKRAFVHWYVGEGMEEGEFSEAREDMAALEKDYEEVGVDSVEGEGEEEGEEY

## CO[C@H]1C[C@@H](C(=O)NC(=O)Nc2ccc(Oc3ccc(Cl)cn3)c(C)c2)C1 [RGN3067]
[1]
  AUC: 51200 ng·h/mL
  Cmax: 7810 ng/mL and 20 µM
  Tmax: 2 h
  half-life: 3.61 ± 1.94 h
[2]
  body weight loss: no statistically significant weight loss was observed
[3]
  fraction unbound at 5 h, 5 µM: 0.018 to 0.026
U87 glioblastoma cells
  cells arrested at G2/M: 73%
Porcine tubulin
  reduction in tubulin polymerization (AUC): 49%
[4]
  distribution in plasma and brain: equal distribution in plasma and brain at all time points
[5]
  effect on tubulin organization / MT network morphology: varying levels of disruption of tubulin organization
[6]
  solubility kinetic at 1 h: 5.7 µM (≈ 2.22 µg/mL)
